Measurements as given in patent publication US20150133547A1, “METHOD AND COMPOSITION FOR TREATING GLAUCOMA” (priority 2013, published 2015).

Tests used:
canine subjects [1] = test: Intraocular pressure (IOP) in canine subjects after topical LC drops, iCARE rebound tonometer; type: in vivo
Protocol: Preparations: The desired composition was DMSO 4.0%, PG 3.0% and LC 10 mg/ml (1% (by weight)), based upon the total composition.
A vehicle was prepared for use as a subsequent dilution (serial dilutions of the initial LC strength), by mixing 4.65 ml of BSS, 0.2 ml of DMSO, and 0.15 ml of PG, to yield a diluent vehicle comprising 4.0% DMSO and 3.0% PG, based upon the total composition. A total of 5 ml was prepared.
Methodology: Inventive compositions were prepared by simple mixing.
IOP was determined using an iCARE® rebound tonometer. Other commercially available IOP measuring devices (tonometers) may also be used.
Progressive dilutions of the composition set forth in Table 1 are shown in Table 2, below, starting with the original 2.5 ml volume preparation of Table 1. These subsequent dilutions were used in the canine experiments set forth below.
The experiments were conducted on canine subjects. Canine subjects have IOP's that are the same (˜10-20 mm/Hg) as that of a human subject. Canines and humans share a common susceptibility gene, SRBD1, for glaucoma risk. Consequently, canines are excellent surrogates to assess the results of the use of the inventive compositions on humans. The results of the experiments are set forth in Table 3, below, reflecting the concentration range of LC used as 0.002% to 0.100% (by weight).
Additional efficacy and safety experiments were conducted using an LC concentration of 0.600% (by weight) in the same animal model. This additional data confirms in two animals the safety and efficacy of topical LC in reducing intraocular pressure.
A series of experiments was run in the same canine model, using LC concentrations, prepared as above, and ranging from 0.200% to 0.700% (by weight).

[2] = cited from earlier work
guinea pigs = details: cited from earlier work
Humans = details: handling of pure or concentrated lambda-cyhalothrin; cited from earlier work
[3] = cited from earlier work; remark: listed apart in the source
rats = details: cited from earlier work
[4] = cited from earlier work; remark: listed apart in the source
rabbits = details: cited from earlier work
canine subjects [5] = test: Adverse events in canine subjects after topical LC (daily ophthalmic examinations, toxicology studies of blood)
[6] = Example 2, canine, topical LC 0.600%, Day 1, drop 9:30, IOP at 9:55
[7] = Example 2, canine, topical LC 0.600%, Day 1, drop 12:00, IOP at 12:30
[8] = Example 2, canine, topical LC 0.600%, Day 3, drop 9:45, IOP at 10:15
[9] = Example 2, canine, topical LC 0.600%, Day 3, drop 12:10, IOP at 12:40
[10] = Example 3, canine, topical LC 0.200%, Day 2, drop 7:40, IOP at 8:45
[11] = Example 3, canine, topical LC 0.300%, Day 3, drop 7:25, IOP at 7:25
[12] = Example 3, canine, topical LC 0.300%, Day 3, drop 12:25, IOP at 13:50
[13] = Example 3, canine, topical LC 0.300%, Day 3, drop 17:40, IOP at 17:30
[14] = Example 3, canine, topical LC 0.400%, Day 4, drop 7:25, IOP at 7:20
[15] = Example 3, canine, topical LC 0.400%, Day 4, drop 12:40, IOP at 12:35
[16] = Example 3, canine, topical LC 0.400%, Day 4, drop 17:25, IOP at 17:20
[17] = Example 3, canine, topical LC 0.500%, Day 5, drop 7:30, IOP at 7:20
[18] = Example 3, canine, topical LC 0.500%, Day 5, drop 12:40, IOP at 12:35
[19] = Example 3, canine, topical LC 0.600%, Day 8, drop 7:30, IOP at 7:00
[20] = Example 3, canine, topical LC 0.600%, Day 8, drop 12:05, IOP at 12:00
[21] = Example 3, canine, topical LC 0.600%, Day 8, drop 17:00, IOP at 16:30
[22] = Example 3, canine, topical LC 0.700%, Day 9, drop 7:05, IOP at 7:00
[23] = Example 3, canine, topical LC 0.700%, Day 9, drop 12:25, IOP at 12:20
[24] = Example 3, canine, topical LC 0.700%, Day 9, drop 17:05, IOP at 17:00
[25] = canine, topical LC 0.002%, Day 4, drop 8:30, IOP at 9:50
[26] = canine, topical LC 0.002%, Day 5, drop 9:00, IOP at 9:50
[27] = canine, topical LC 0.002%, Day 5, drop 14:30, IOP at 15:00
[28] = canine, topical LC 0.020%, Day 7, drop 9:00, IOP at 9:30
[29] = canine, topical LC 0.020%, Day 7, drop 15:00, IOP at 16:00
[30] = canine, topical LC 0.050%, Day 9, drop 9:00, IOP at 9:30
[31] = canine, topical LC 0.050%, Day 9, drop 15:00, IOP at 16:00
[32] = canine, topical LC 0.100%, Day 11, drop 9:00, IOP at 9:42
[33] = canine, topical LC 0.100%, Day 11, drop 15:00, IOP at 15:22

CC1(C)C(/C=C(\Cl)C(F)(F)F)C1C(=O)OC(C#N)c1cccc(Oc2ccccc2)c1 [LC, (R)-cyano(3-phenoxyphenyl) methyl (1S,3S)-rel-3-[(1Z)-2-chloro-3,3,3-trifluoro-1-propenyl]-2,2-dimethyl cyclopropane carboxylate]
reduction in intraocular pressure after topical administration (canine subjects [1]; Example 1, canine, 0.002% to 0.100% (by weight), dose related): significant reduction
IOP OD (canine subjects [1]; [6]): 8
IOP OS (canine subjects [1]; [6]): 7
IOP OD (canine subjects [1]; [7]): 8
IOP OS (canine subjects [1]; [7]): 8
IOP OD (canine subjects [1]; [8]): 6
IOP OS (canine subjects [1]; [8]): 7
IOP OD (canine subjects [1]; [9]): 7
IOP OS (canine subjects [1]; [9]): 7
IOP OD (canine subjects [1]; [10]): 8
IOP OS (canine subjects [1]; [10]): 7
IOP OD (canine subjects [1]; [11]): 13
IOP OS (canine subjects [1]; [11]): 10
IOP OD (canine subjects [1]; [12]): 6
IOP OS (canine subjects [1]; [12]): 7
IOP OD (canine subjects [1]; [13]): 9
IOP OS (canine subjects [1]; [13]): 8
IOP OD (canine subjects [1]; [14]): 12
IOP OS (canine subjects [1]; [14]): 11
IOP OD (canine subjects [1]; [15]): 7
IOP OS (canine subjects [1]; [15]): 7
IOP OD (canine subjects [1]; [16]): 7
IOP OS (canine subjects [1]; [16]): 7
IOP OD (canine subjects [1]; [17]): 9
IOP OS (canine subjects [1]; [17]): 10
IOP OD (canine subjects [1]; [18]): 7
IOP OS (canine subjects [1]; [18]): 7
IOP OD (canine subjects [1]; [19]): 7
IOP OS (canine subjects [1]; [19]): 7
IOP OD (canine subjects [1]; [20]): 6
IOP OS (canine subjects [1]; [20]): 6
IOP OD (canine subjects [1]; [21]): 7
IOP OS (canine subjects [1]; [21]): 8
IOP OD (canine subjects [1]; [22]): 8
IOP OS (canine subjects [1]; [22]): 7
IOP OD (canine subjects [1]; [23]): 7
IOP OS (canine subjects [1]; [23]): 7
IOP OD (canine subjects [1]; [24]): 6
IOP OS (canine subjects [1]; [24]): 5
persistence of the reduction of intra-ocular pressure (canine subjects [1]; after exposure): hours to days
reduction of IOP (canine subjects [1]; canine, dosages ranging from 0.002% to 0.700% LC (by weight), overall): 35-40%
IOP OD (intraocular pressure right eye) (canine subjects [1]; [25]): 8
IOP OS (intraocular pressure left eye) (canine subjects [1]; [25]): 8
IOP OD (intraocular pressure right eye) (canine subjects [1]; [26]): 8
IOP OS (intraocular pressure left eye) (canine subjects [1]; [26]): 8
IOP OD (intraocular pressure right eye) (canine subjects [1]; [27]): 8
IOP OS (intraocular pressure left eye) (canine subjects [1]; [27]): 9
IOP OD (intraocular pressure right eye) (canine subjects [1]; [28]): 10
IOP OS (intraocular pressure left eye) (canine subjects [1]; [28]): 9
IOP OD (intraocular pressure right eye) (canine subjects [1]; [29]): 10
IOP OS (intraocular pressure left eye) (canine subjects [1]; [29]): 7
IOP OD (intraocular pressure right eye) (canine subjects [1]; [30]): 11
IOP OS (intraocular pressure left eye) (canine subjects [1]; [30]): 11
IOP OD (intraocular pressure right eye) (canine subjects [1]; [31]): 7
IOP OS (intraocular pressure left eye) (canine subjects [1]; [31]): 8
IOP OD (intraocular pressure right eye) (canine subjects [1]; [32]): 9
IOP OS (intraocular pressure left eye) (canine subjects [1]; [32]): 10
IOP OD (intraocular pressure right eye) (canine subjects [1]; [33]): 11
IOP OS (intraocular pressure left eye) (canine subjects [1]; [33]): 5
water solubility [2]: low
skin sensitivity in guinea pigs (guinea pigs): no skin sensitivity
onset of symptoms after exposure (Humans): ≤ 30 min
symptoms reported on exposure (Humans): facial tingling and burning
EPA toxicity class when inhaled [3]: moderately toxic
EPA toxicity class, skin effects for rats (rats): moderately toxic
EPA toxicity class, eye effects [4]: moderately toxic
toxicity in skin effects for rabbits (rabbits): low toxicity
local or systemic adverse events (canine subjects [5]; Example 1, daily complete ophthalmic examinations and toxicology studies of blood): no local or systemic adverse events
AE (canine subjects [5]; Example 2, topical LC 0.600%, Day 1, drop 9:30): 0
AE (canine subjects [5]; Example 2, topical LC 0.600%, Day 1, drop 12:00): 0
AE (canine subjects [5]; Example 2, topical LC 0.600%, Day 3, drop 9:45): 0
AE (canine subjects [5]; Example 2, topical LC 0.600%, Day 3, drop 12:10): 0
AE (canine subjects [5]; Example 3, topical LC 0.200%, Day 2, drop 7:40): 0
AE (canine subjects [5]; Example 3, topical LC 0.200%, Day 2, drop 12:22): 0
AE (canine subjects [5]; Example 3, topical LC 0.200%, Day 2, drop 17:05): 0
AE (canine subjects [5]; Example 3, topical LC 0.300%, Day 3, drop 7:25): 0
AE (canine subjects [5]; Example 3, topical LC 0.300%, Day 3, drop 12:25): 0
AE (canine subjects [5]; Example 3, topical LC 0.300%, Day 3, drop 17:40): 0
AE (canine subjects [5]; Example 3, topical LC 0.400%, Day 4, drop 7:25): 0
AE (canine subjects [5]; Example 3, topical LC 0.400%, Day 4, drop 12:40): 0
AE (canine subjects [5]; Example 3, topical LC 0.400%, Day 4, drop 17:25): 0
AE (canine subjects [5]; Example 3, topical LC 0.500%, Day 5, drop 7:30): 0
AE (canine subjects [5]; Example 3, topical LC 0.500%, Day 5, drop 12:40): 0
AE (canine subjects [5]; Example 3, topical LC 0.600%, Day 8, drop 7:30): 0
AE (canine subjects [5]; Example 3, topical LC 0.600%, Day 8, drop 12:05): 0
AE (canine subjects [5]; Example 3, topical LC 0.600%, Day 8, drop 17:00): 0
AE (canine subjects [5]; Example 3, topical LC 0.700%, Day 9, drop 7:05): 0
AE (canine subjects [5]; Example 3, topical LC 0.700%, Day 9, drop 12:25): 1
AE (canine subjects [5]; Example 3, topical LC 0.700%, Day 9, drop 17:05): 1
adverse events at doses other than 0.700% (canine subjects [5]; topical 0.002% to 0.600% LC): No adverse events
adverse events at the 0.700% dose (canine subjects [5]; topical 0.700% LC): minimal, reversible inferior conjunctival hyperemia
AE (adverse event) (canine subjects [5]; topical LC 0.002%, Day 4, drop 8:30): 0
AE (adverse event) (canine subjects [5]; topical LC 0.002%, Day 5, drop 9:00): 0
AE (adverse event) (canine subjects [5]; topical LC 0.002%, Day 5, drop 14:30): 0
AE (adverse event) (canine subjects [5]; topical LC 0.020%, Day 7, drop 9:00): 0
AE (adverse event) (canine subjects [5]; topical LC 0.020%, Day 7, drop 15:00): 0
AE (adverse event) (canine subjects [5]; topical LC 0.050%, Day 9, drop 9:00): 0
AE (adverse event) (canine subjects [5]; topical LC 0.050%, Day 9, drop 15:00): 0
AE (adverse event) (canine subjects [5]; topical LC 0.100%, Day 11, drop 9:00): 0
AE (adverse event) (canine subjects [5]; topical LC 0.100%, Day 11, drop 15:00): 0
